Reference: PubChem BioAssay (NCI)
Values joined by “and” are separate entries in the source; they are usually repeats but may differ in a detail not shown here. Equal entries are not always repeated.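 Cells were grown in 96-well plates and exposed to each compound for 48 hours at five concentrations; endpoints were interpolated linearly between bracketing concentrations, or set to the highest concentration if not reached. GI50 is the concentration that inhibits growth by half. TGI denotes the concentration required for complete inhibition of growth.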

Legend:
Assay in all cases: NCI tumour cell line growth inhibition, 48 h
CCRF-CEM leukemia = test system: CCRF-CEM leukemia
EKVX NSCLC = test system: EKVX NSCLC
HCT-15 colon = test system: HCT-15 colon
HOP-62 NSCLC = test system: HOP-62 NSCLC
IGROV1 ovarian = test system: IGROV1 ovarian
M14 melanoma = test system: M14 melanoma
MOLT-4 leukemia = test system: MOLT-4 leukemia
NCI-H226 lung = test system: NCI-H226 lung
NCI/ADR-RES ovarian = test system: NCI/ADR-RES ovarian
PC-3 prostate = test system: PC-3 prostate

SMILES	TGI (CCRF-CEM leukemia)	TGI (EKVX NSCLC)	TGI (HCT-15 colon)	TGI (HOP-62 NSCLC)	TGI (IGROV1 ovarian)	TGI (M14 melanoma)	TGI (MOLT-4 leukemia)	TGI (NCI-H226 lung)	TGI (NCI/ADR-RES ovarian)	TGI (PC-3 prostate)	GI50 (CCRF-CEM leukemia)	GI50 (EKVX NSCLC)	GI50 (HCT-15 colon)	GI50 (HOP-62 NSCLC)	GI50 (IGROV1 ovarian)	GI50 (M14 melanoma)	GI50 (MOLT-4 leukemia)	GI50 (NCI-H226 lung)	GI50 (NCI/ADR-RES ovarian)	GI50 (PC-3 prostate)
CCN(CC)CCNc1n[n+]([O-])c2ccccc2[n+]1[O-]	13.7 µM and 30.6 µM	44 µM	26.1 µM and 25 µM	20 µM	10.3 µM and 17 µM	21 µM and 28.7 µM	5.12 µM and 5.07 µM	23.7 µM and 29.9 µM	85.6 µM and > 100 µM	> 100 µM	–	–	–	–	–	–	–	–	–	–
CC(C)Oc1cc(O)c2c(c1)OCC=C2CCC(=O)O	43.3 µM	91.2 µM	66.2 µM	> 100 µM	> 100 µM	98.6 µM	91 µM	69.8 µM	> 100 µM	> 100 µM	–	–	–	–	–	–	–	–	–	–
COc1ccc(C2CC(n3nnnc3-c3ccccc3)=NN2)cc1 (stereo unspecified)	51.1 µM	36.3 µM	26.2 µM	45.8 µM	> 100 µM	14.6 µM	42.6 µM	22.8 µM	33.7 µM	72.3 µM	0.499 µM	1.8 µM	2.16 µM	12.8 µM	2.44 µM	0.6 µM	5.99 µM	4.98 µM	4.3 µM	6.28 µM
COc1ccc(CN2c3ccccc3CCc3ccccc32)cc1F	> 100 µM	> 100 µM	> 100 µM	> 100 µM	> 100 µM	> 100 µM	> 100 µM	> 100 µM	> 100 µM	> 100 µM	0.515 µM	1.55 µM	0.428 µM	0.529 µM	1.57 µM	0.354 µM	0.554 µM	2.43 µM	0.456 µM	0.489 µM
COc1cc2nc(-c3ccc(C(F)(F)F)cc3)cc(OCCCN3CCCCC3)c2cc1OC	10.6 µM	14.6 µM	10.1 µM	13.6 µM	16 µM	1.26 µM	8.56 µM	3.51 µM	14.8 µM	11.2 µM	1.83 µM	0.803 µM	0.399 µM	0.947 µM	0.651 µM	0.327 µM	1.7 µM	0.37 µM	0.522 µM	1.34 µM
OCC1OC(n2cnc3c(/C=C(/O)c4ccccc4)ncnc32)C(O)C1O (stereo unspecified)	> 100 µM	> 100 µM	> 100 µM	> 100 µM	> 100 µM	> 100 µM	> 100 µM	> 92.7 µM	> 92 µM	> 62.4 µM	–	–	–	–	–	–	–	–	–	–
COC(=O)CCCCCN=Cc1c(O)c(O)c(C(C)C)c2cc(C)c(-c3c(C)cc4c(C(C)C)c(O)c(O)c(C=NCCCCCC(=O)OC)c4c3O)c(O)c12	11.1 µM	> 32.5 µM	> 32.5 µM	28.1 µM	> 32.5 µM	25.9 µM	16.5 µM	19 µM	> 32.5 µM	> 32.5 µM	0.946 µM	1.18 µM	1.55 µM	1.35 µM	1.76 µM	2.3 µM	1.05 µM	3.15 µM	9.04 µM	1.03 µM
FCc1ncc(-c2ccc(C(F)(F)F)cc2)c(NC2CCCCCC2)n1	> 10 µM	–	> 10 µM	> 10 µM	> 10 µM	> 10 µM	> 10 µM	> 10 µM	> 10 µM	> 10 µM	> 10 µM	–	> 10 µM	> 10 µM	> 10 µM	> 10 µM	> 10 µM	> 10 µM	> 10 µM	> 10 µM
COC(=O)CCC1=C(C)/C(=C/c2[nH]c(-c3ccc[nH]3)cc2OC)N=C1C	6.5 µM	10.8 µM	1.95 µM	1.53 µM	12 µM	1.8 µM	7.08 µM	1.6 µM	12.3 µM	12 µM	0.306 µM	1.46 µM	0.265 µM	0.454 µM	1.4 µM	0.42 µM	0.368 µM	0.38 µM	0.434 µM	0.564 µM
CCN(CCNc1ccc(C)c2sc3ccccc3c(=O)c12)CC(C)(C)O	34.5 µM	> 66.7 µM	7.78 µM	34.3 µM	31.5 µM	12.2 µM	> 46 µM	33 µM	56.1 µM	53.5 µM	6.95 µM	20.1 µM	2.59 µM	14.6 µM	13.2 µM	4.21 µM	6.26 µM	15.2 µM	14.1 µM	12.9 µM
c1nnc(NCNc2nncs2)s1	> 100 µM	> 100 µM	> 100 µM	> 100 µM	> 100 µM	> 100 µM	> 100 µM	> 100 µM	> 100 µM	> 100 µM	–	–	–	–	–	–	–	–	–	–
O=C1c2ccccc2-n2c1nc1ccccc1c2=O	> 100 µM	35.3 µM	> 81.3 µM	41 µM	> 92.1 µM	11.1 µM	> 100 µM	> 80.1 µM	> 100 µM	> 60.1 µM	–	–	–	–	–	–	–	–	–	–
C/C(=N\NC(N)=S)c1nc2ccc(Cl)cc2[nH]1	> 50 µM	12.3 µM	12.5 µM	11.9 µM	17.8 µM	28.5 µM	> 50 µM	10.1 µM	> 50 µM	48.2 µM	2.11 µM	0.966 µM	0.857 µM	2.7 µM	3.06 µM	1.8 µM	1.78 µM	2.48 µM	1.21 µM	4.05 µM
Cc1ccc(S(=O)(=O)N=Nc2c(O)[nH]c3c(Cl)cc(Cl)cc23)cc1	> 100 µM	> 100 µM	> 100 µM	> 100 µM	> 100 µM	> 100 µM	> 100 µM	> 100 µM	> 100 µM	> 100 µM	–	–	–	–	–	–	–	–	–	–
COc1ccc(-c2cn[nH]c2-c2cc(OC)c3c(c2)OCCO3)cc1	> 73.9 µM	–	22.4 µM	47.6 µM	39.6 µM	21.1 µM	34.3 µM	23.4 µM	41.5 µM	39 µM	0.298 µM	–	0.0635 µM	0.264 µM	0.384 µM	0.0694 µM	0.706 µM	2.07 µM	0.0549 µM	0.128 µM
